Values joined by “and” are separate entries in the source; they are usually repeats but may differ in a detail not shown here. Equal values may be shown once. Inconclusive results and toxic doses are left out. No stated cut-off is given here; in the data, active means T/C of 150% or more; inactive means T/C below 125%.
Tested on: L1210 leukemia ip in BDF1 mice, survival T/C
Assay: NCI In Vivo Anticancer Drug Screen. Data for tumor model L1210 Leukemia (intraperitoneal) in B6D2F1 (BDF1) mice
Details: endpoint: mean survival time, higher = longer survival
Method in brief: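 Survival endpoint. Drug-treated group vs vehicle group, expressed as T divided by C. Tumor passaged by transplantation.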

[1] = dose: 12.5 mg/kg/injection, schedule: Q01DX009 (ip), vehicle: Klucel (hydroxypropylcellulose) (HPC)
[2] = dose: 25.0 mg/kg/injection, schedule: Q01DX009 (ip), vehicle: Klucel (hydroxypropylcellulose) (HPC)
[3] = dose: 50.0 mg/kg/injection, schedule: Q01DX009 (ip), vehicle: Klucel (hydroxypropylcellulose) (HPC)
[4] = dose: 100.0 mg/kg/injection, schedule: Q01DX009 (ip), vehicle: Klucel (hydroxypropylcellulose) (HPC)
[5] = dose: 200.0 mg/kg/injection, schedule: Q01DX009 (ip), vehicle: Klucel (hydroxypropylcellulose) (HPC)
[6] = dose: 400.0 mg/kg/injection, schedule: Q01DX009 (ip), vehicle: Klucel (hydroxypropylcellulose) (HPC)
[7] = dose: 100.0 mg/kg/injection, schedule: Q01DX001 (ip), vehicle: saline with Tween-80
[8] = dose: 200.0 mg/kg/injection, schedule: Q01DX001 (ip), vehicle: saline with Tween-80
[9] = dose: 400.0 mg/kg/injection, schedule: Q01DX001 (ip), vehicle: saline with Tween-80
[10] = dose: 100.0 mg/kg/injection, schedule: Q01DX009 (ip), vehicle: saline sonified
[11] = dose: 100.0 mg/kg/injection, schedule: Q04DX003 (ip), vehicle: saline sonified
[12] = dose: 200.0 mg/kg/injection, schedule: Q04DX003 (ip), vehicle: saline sonified
[13] = dose: 400.0 mg/kg/injection, schedule: Q04DX003 (ip), vehicle: saline sonified
[14] = dose: 100.0 mg/kg/injection, schedule: Q04DX003 (ip), vehicle: saline with Tween-80
[15] = dose: 200.0 mg/kg/injection, schedule: Q04DX003 (ip), vehicle: saline with Tween-80
[16] = dose: 400.0 mg/kg/injection, schedule: Q04DX003 (ip), vehicle: saline with Tween-80
[17] = dose: 100.0 mg/kg/injection, schedule: Q04DX003 (ip), vehicle: Klucel (hydroxypropylcellulose) (HPC)
[18] = dose: 200.0 mg/kg/injection, schedule: Q04DX003 (ip), vehicle: Klucel (hydroxypropylcellulose) (HPC)
[19] = dose: 400.0 mg/kg/injection, schedule: Q04DX003 (ip), vehicle: Klucel (hydroxypropylcellulose) (HPC)
[20] = dose: 100.0 mg/kg/injection, schedule: Q01DX001 (ip), vehicle: saline
[21] = dose: 200.0 mg/kg/injection, schedule: Q01DX001 (ip), vehicle: saline
[22] = dose: 400.0 mg/kg/injection, schedule: Q01DX001 (ip), vehicle: saline
[23] = dose: 100.0 mg/kg/injection, schedule: Q04DX002 (ip), vehicle: saline with Tween-80
[24] = dose: 200.0 mg/kg/injection, schedule: Q04DX002 (ip), vehicle: saline with Tween-80
[25] = dose: 400.0 mg/kg/injection, schedule: Q04DX002 (ip), vehicle: saline with Tween-80

Measured: T/C

CCCCCCCCCOc1ccc(C=Nc2ccc(CC)cc2)cc1
inactive: [1] 92 % of control | [2] 90 % of control | [3] 92 % of control

COc1ccc2c3c(ccc2c1)NC(C(=O)O)CC3 (stereo unspecified)
inactive: [4] 97 % of control | [5] 96 % of control | [6] 96 % of control

CC(C)(C)C(=C=C=O)C#N
inactive: [7] 87 % of control | [8] 94 % of control | [9] 87 % of control

CCCCNCCC[P+](c1ccccc1)(c1ccccc1)c1ccccc1
inactive: dose: 25.0 mg/kg/injection, schedule: Q04DX002 (ip), vehicle: saline 115 % of control | dose: 50.0 mg/kg/injection, schedule: Q04DX002 (ip), vehicle: saline 98 % of control | dose: 100.0 mg/kg/injection, schedule: Q04DX002 (ip), vehicle: saline 105 % of control

Cc1cccc(OC(=O)Nc2ccccc2C)c1
inactive: dose: 100.0 mg/kg/injection, schedule: Q04DX002 (ip), vehicle: Klucel (hydroxypropylcellulose) (HPC) 103 % of control | dose: 200.0 mg/kg/injection, schedule: Q04DX002 (ip), vehicle: Klucel (hydroxypropylcellulose) (HPC) 118 % of control | dose: 400.0 mg/kg/injection, schedule: Q04DX002 (ip), vehicle: Klucel (hydroxypropylcellulose) (HPC) 100 % of control

COc1cc2ccc3c(c2cc1OC)C=[N+](C)CC3
inactive: [10] 120 % of control | [11] 98 % of control | dose: 200.0 mg/kg/injection, schedule: Q01DX009 (ip), vehicle: saline sonified 114 % of control | [12] 93 % of control | [13] 102 % of control

CC12CC(C3(O)C(=O)Nc4ccccc43)C(=O)CC1CCC1C2CCC2(C)C(OC(=O)c3ccccc3)CCC12 (stereo unspecified)
inactive: [3] 93 % of control | [4] 101 % of control | [5] 101 % of control

CCCC1COCC(CC)/C1=N\Nc1ccc([N+](=O)[O-])cc1[N+](=O)[O-] (stereo unspecified)
inactive: dose: 100.0 mg/kg/injection, schedule: Q01DX001 (ip), vehicle: Klucel (hydroxypropylcellulose) (HPC) 91 % of control | dose: 200.0 mg/kg/injection, schedule: Q01DX001 (ip), vehicle: Klucel (hydroxypropylcellulose) (HPC) 94 % of control | dose: 400.0 mg/kg/injection, schedule: Q01DX001 (ip), vehicle: Klucel (hydroxypropylcellulose) (HPC) 91 % of control

CCC(CC)NCC(C)(C)O
inactive: dose: 75.0 mg/kg/injection, schedule: Q01DX001 (ip), vehicle: acid diluted with saline 115 % of control | dose: 150.0 mg/kg/injection, schedule: Q01DX001 (ip), vehicle: acid diluted with saline 110 % of control

CCOC(=O)C(O)c1cccc(OC)c1 (stereo unspecified)
inactive: [10] 92 % of control | [11] 97 % of control | [12] 94 % of control | dose: 400.0 mg/kg/injection, schedule: Q01DX009 (ip), vehicle: saline sonified 89 % of control | [13] 103 % of control

Cc1[nH]nc(C(=O)N(C)C)c1N=NN(C)C
inactive: dose: 75.0 mg/kg/injection, schedule: Q01DX001 (ip), vehicle: saline 116 % of control

O=C(O)C1=C/C(=C\C=[N+]2c3cc(O)c(OC4OC(CO)C(O)C(O)C4O)cc3CC2C(=O)[O-])CC(C(=O)O)N1 (stereo unspecified)
inactive: [14] 97 % of control | [15] 94 % of control | [16] 95 % of control

O=C(Nc1ccc(S(=O)(=O)Nc2ccc(N=Nc3ccc(S(=O)(=O)Nc4nccs4)cc3)cc2)cc1)C(SC1=NC=NC2=NC=NC21)SC1=NC=NC2=NC=NC21 (stereo unspecified)
inactive: dose: 75.0 mg/kg/injection, schedule: Q04DX003 (ip), vehicle: saline 100 % of control | dose: 150.0 mg/kg/injection, schedule: Q04DX003 (ip), vehicle: saline 96 % of control | dose: 300.0 mg/kg/injection, schedule: Q04DX003 (ip), vehicle: saline 98 % of control

Cc1ccc(S(=O)(=O)OCC(C)C2CCC3C4CC=C5CC(Cl)CCC5(C)C4CCC23C)cc1 (stereo unspecified)
inactive: [7] 91 % of control | [8] 102 % of control | [9] 94 % of control

COc1ccc(NC(=O)Nc2cc(Cl)ccc2OC)cc1
inactive: [1] 90 % of control | [2] 93 % of control | [3] 93 % of control | [17] 99 % of control | [18] 92 % of control | [19] 90 % of control

CCOC(=O)C/C(C)=N\N=C(\C)C(=O)OCC
inactive: [20] 98 % of control | [21] 98 % of control | [22] 92 % of control

Cc1cccc(NC(=S)NC(=O)c2cccc([N+](=O)[O-])c2)c1C
inactive: dose: 100.0 mg/kg/injection, schedule: Q01DX009 (ip), vehicle: saline with Tween-80 104 % of control and 118 % of control | [23] 88 % of control | [14] 99 % of control | dose: 200.0 mg/kg/injection, schedule: Q01DX009 (ip), vehicle: saline with Tween-80 103 % of control and 104 % of control | [24] 102 % of control | [15] 101 % of control | dose: 400.0 mg/kg/injection, schedule: Q01DX009 (ip), vehicle: saline with Tween-80 104 % of control | [25] 98 % of control | [16] 100 % of control

CCN(CC)CCOC(=O)c1ccc(N=C=S)cc1
inactive: dose: 12.5 mg/kg/injection, schedule: Q01DX009 (ip), vehicle: saline 102 % of control | dose: 25.0 mg/kg/injection, schedule: Q01DX009 (ip), vehicle: saline 100 % of control | dose: 50.0 mg/kg/injection, schedule: Q01DX009 (ip), vehicle: saline 96 % of control

O=C(O)C(Br)C(Br)C(=O)Nc1cccc(Cl)c1 (stereo unspecified)
inactive: [23] 91 % of control | [24] 95 % of control | [25] 88 % of control

CN(C)[C@@H]1C(=O)C(C(=O)NCNc2nc3n[nH]nc3c(=O)[nH]2)=C(O)[C@@]2(O)C(=O)C3=C(O)c4c(O)cccc4[C@@](C)(O)[C@H]3C[C@@H]12
inactive: dose: 12.5 mg/kg/injection, schedule: Q01DX009 (ip), vehicle: acetone 98 % of control | dose: 25.0 mg/kg/injection, schedule: Q01DX009 (ip), vehicle: acetone 104 % of control | dose: 50.0 mg/kg/injection, schedule: Q01DX009 (ip), vehicle: acetone 122 % of control | [20] 102 % of control | dose: 100.0 mg/kg/injection, schedule: Q01DX009 (ip), vehicle: acetone 117 % of control | [21] 96 % of control | dose: 200.0 mg/kg/injection, schedule: Q01DX009 (ip), vehicle: acetone 122 % of control | [22] 105 % of control

CCOC(=O)c1cnc(SC)nc1Nc1ccc(OC)cc1
inactive: [4] 96 % of control | [17] 95 % of control | [5] 91 % of control | [18] 98 % of control | [6] 94 % of control | [19] 90 % of control

— PubChem BioAssay AID248 (DTP/NCI, 2004)
